Parameters in all cases: scale not given: the % may be the effect or the level left
Assay [1] concerns Platelet. The assay is described as follows: Inhibition of platelet-activity factor-induced platelet aggregation in rabbit platelet-rich plasma at 50 ug/ml by turbidimetric method. It is filed as functional, Oryctolagus cuniculus.
In assay [2] the test system is Platelet. The assay is described as follows: Inhibition of arachidonic acid-induced platelet aggregation in rabbit platelet-rich plasma at 50 ug/ml by turbidimetric method. The class given is functional, Oryctolagus cuniculus.
The test system of assay [3] is Aorta. In words: Vasorelaxant activity against high potassium-induced contraction in Wistar rat thoracic aorta at 50 ug/ml. It is filed as functional.
For assay [4], the system named is Aorta. The assay is described as follows: Vasorelaxant activity against norepinephrine-induced tonic contraction in Wistar rat thoracic aorta at 50 ug/ml. The class given is functional.
The test system of assay [5] is Platelet. The assay is described as follows: Inhibition of adenosine diphosphate-induced platelet aggregation in rabbit platelet-rich plasma at 50 ug/ml by turbidimetric method. It is filed as functional, Oryctolagus cuniculus.
In assay [6] the test system is Platelet. The assay is described as follows: Inhibition of collagen-induced platelet aggregation in rabbit platelet-rich plasma at 50 ug/ml by turbidimetric method. The class given is functional, Oryctolagus cuniculus.
The subject of assay [7] is Aorta. The assay is described as follows: Vasorelaxant activity against norepinephrine-induced phasic contraction in Wistar rat thoracic aorta at 50 ug/ml. It is filed as functional.
In assay [8] the test system is Platelet. In words: Inhibition of platelet-activity factor-induced platelet aggregation in rabbit platelet-rich plasma at 100 ug/ml by turbidimetric method. It is filed as functional, Oryctolagus cuniculus.
For assay [9], the system named is Platelet. In words: Inhibition of adenosine diphosphate-induced platelet aggregation in rabbit platelet-rich plasma at 100 ug/ml by turbidimetric method. The class given is functional, Oryctolagus cuniculus.
In assay [10] the test system is Platelet. In words: Inhibition of collagen-induced platelet aggregation in rabbit platelet-rich plasma at 100 ug/ml by turbidimetric method. The class given is functional, Oryctolagus cuniculus.
The test system of assay [11] is Platelet. The assay is described as follows: Inhibition of arachidonic acid-induced platelet aggregation in rabbit platelet-rich plasma at 100 ug/ml by turbidimetric method. It is filed as functional, Oryctolagus cuniculus.
Assay [12] concerns Aorta. In words: Vasorelaxant activity against norepinephrine-induced tonic contraction in Wistar rat thoracic aorta at 100 ug/ml. The class given is functional.
The subject of assay [13] is Aorta. The assay is described as follows: Vasorelaxant activity against high potassium-induced contraction in Wistar rat thoracic aorta at 100 ug/ml. The class given is functional.
For assay [14], the system named is Aorta. In words: Vasorelaxant activity against norepinephrine-induced phasic contraction in Wistar rat thoracic aorta at 100 ug/ml. It is filed as functional.
Assay [15] relates to Aorta. In words: Vasorelaxant activity against high potassium-induced contraction in Wistar rat thoracic aorta at 20 ug/ml. It is filed as functional.
Assay [16] concerns Aorta. The assay is described as follows: Vasorelaxant activity against norepinephrine-induced phasic contraction in Wistar rat thoracic aorta at 20 ug/ml. The class given is functional.
The test system of assay [17] is Aorta. The assay is described as follows: Vasorelaxant activity against norepinephrine-induced tonic contraction in Wistar rat thoracic aorta at 20 ug/ml. The class given is functional.
The test system of assay [18] is Aorta. The assay is described as follows: Vasorelaxant activity against high potassium-induced contraction in Wistar rat thoracic aorta at 1 ug/ml. It is filed as functional.
For assay [19], the system named is Aorta. The assay is described as follows: Vasorelaxant activity against norepinephrine-induced tonic contraction in Wistar rat thoracic aorta at 1 ug/ml. The class given is functional.
Assay [20] concerns Aorta. The assay is described as follows: Vasorelaxant activity against norepinephrine-induced phasic contraction in Wistar rat thoracic aorta at 1 ug/ml. It is filed as functional.
Assay [21] concerns Platelet. In words: Inhibition of collagen-induced platelet aggregation in rabbit platelet-rich plasma at 25 ug/ml by turbidimetric method. It is filed as functional, Oryctolagus cuniculus.
Assay [22] has as its system Platelet. The assay is described as follows: Inhibition of adenosine diphosphate-induced platelet aggregation in rabbit platelet-rich plasma at 25 ug/ml by turbidimetric method. It is filed as functional, Oryctolagus cuniculus.
The test system of assay [23] is Platelet. The assay is described as follows: Inhibition of arachidonic acid-induced platelet aggregation in rabbit platelet-rich plasma at 25 ug/ml by turbidimetric method. The class given is functional, Oryctolagus cuniculus.
Assay [24] concerns Platelet. The assay is described as follows: Inhibition of platelet-activity factor-induced platelet aggregation in rabbit platelet-rich plasma at 25 ug/ml by turbidimetric method. It is filed as functional, Oryctolagus cuniculus.

Each structure is given as a SMILES string.

As to `COc1ccc(C[C@H]2c3cc(OC)c(OC)cc3CCN2C)cc1O` [LAUDANIDINE], the Activity worked out at 90% in the assay with Platelet [1]; 89% in the assay on Platelet [2]; 105% in the assay with Aorta [3]; 80.9% in the assay on Aorta [4]; 77.6% with Platelet [5]; 87.9% with Platelet [6]. The Activity with Aorta [7] worked out at 58.5%.
As for `COc1ccc(C[C@@H]2c3cc(OC)c(OC)cc3CCN2C)cc1OC`, the Activity in the assay on Platelet [8] came to 92.5%; in the assay with Platelet [9], 92.2%; in the assay with Platelet [10] it was 81.4%; with Platelet [11], 81.2%.
Consider `COc1cc2c(cc1OC)[C@H](Cc1ccc(O)cc1)NCC2.[O-][Cl+3]([O-])([O-])O`, for which the Activity with Aorta [12] is 90.5%; with Platelet [8], 78.2%; in the assay on Platelet [9] it was 63.1%; in the assay on Platelet [10], 83.6%; in the assay with Aorta [13], 43%; in the assay with Platelet [11], 60.5%. The compound further displayed an Activity in the assay on Aorta [14] of 100%.
For the compound `COc1cc2c(cc1OC)[C@@H](Cc1ccc(O)cc1)N(C)CC2.O=C(O)C(=O)O`, the Activity in the assay with Platelet [8] was determined as 93.6%; in the assay on Platelet [9], 92.7%; in the assay with Platelet [10], 88.4%; in the assay on Platelet [11] it was 91.3%.
In the case of `COc1cc2c(cc1O)C(Cc1ccc(O)cc1)NCC2` (racemic) [COCLAURINE], the Activity was found to be 93.7% with Aorta [12]; 72.7% in the assay with Platelet [8]; 70.2% in the assay on Platelet [9]; 69.7% in the assay on Platelet [10]; 109.9% in the assay with Aorta [13]; 0% in the assay on Platelet [11]. Moreover, the Activity with Aorta [14] was 100%.
Regarding `COc1ccc(C[C@H]2NCCc3cc(OC)c(OC)cc32)cc1`, the Activity with Platelet [8] is recorded as 90.7%; with Platelet [9], 93.1%; with Platelet [10], 79.2%; with Platelet [11], 89.2%.
For `COc1cc(CC[N+](C)(C)C)c2ccc3ccccc3c2c1OC.[I-]` [ATHEROSPERMINIUM I], the Activity in the assay with Platelet [8] came to 0%; with Platelet [9], 0%; in the assay with Platelet [10], 0%; in the assay with Aorta [15] it was 38.3%; in the assay with Aorta [16], 108.3%; in the assay on Platelet [11] it was 0%. For the same compound, in the assay with Aorta [17], the Activity was 100.5%.
Regarding `COc1cc2ccc3c(CC[N+](C)(C)[O-])cc(OC)c(OC)c3c2cc1OC`, the Activity in the assay on Platelet [8] was 87.2%; in the assay on Platelet [9] it was 74.6%; with Platelet [10] it was 52.1%; with Aorta [15], 104.2%; in the assay with Aorta [16], 72.5%; in the assay with Platelet [11] it was 83.5%. Besides, in the assay with Aorta [17], the Activity stood at 83.2%.
Take `COc1ccc(C[C@H]2c3cc(O)c(OC)cc3CCN2C)cc1O` [(S)-RETICULINE]: the Activity with Aorta [12] is recorded as 110.5%; with Platelet [8], 85.9%; with Platelet [9], 58.7%; with Platelet [10] it was 84.2%; with Aorta [13], 109.3%; in the assay with Platelet [11], 39.2%. Besides, the Activity in the assay on Aorta [14] is on record as 100%.
With `COc1ccc2c(ccc3c(CCN(C)O)cc4c(c32)OCO4)c1`, the Activity with Aorta [12] is reported as 91.9%; in the assay on Platelet [1] it was 74.8%; in the assay on Platelet [2] it was 0%; in the assay with Aorta [13], 55.8%; in the assay on Platelet [5] it was 58.6%; in the assay on Platelet [6], 23.5%. In the assay on Aorta [14], this compound returned an Activity of 102%.
For the compound `COc1cc2c(cc1OC)[C@H](Cc1ccc(O)cc1)N(C)CC2.O=C(O)C(=O)O`, the Activity with Platelet [8] is 91.5%; with Platelet [9], 89.7%; in the assay on Platelet [10] it was 82.4%; in the assay with Platelet [11] it was 79.5%.
Consider `COc1cc(CCN(C)C)c2ccc3ccccc3c2c1OC.[O-][Cl+3]([O-])([O-])O` [ATHEROSPERMININE HCLO4], for which the Activity with Aorta [12], in the assay with Platelet [8], in the assay on Platelet [9], with Platelet [10], in the assay with Aorta [13] and in the assay on Platelet [11] was 0% each time. The same compound registered an Activity in the assay on Aorta [14] of 0%.
`COc1ccc(C[C@@H]2NCCc3cc(OC)c(OC)cc32)cc1.O=C(O)C(=O)O`: the Activity is listed as 91.4% with Platelet [8], 93.4% in the assay with Platelet [9], 86.6% with Platelet [10] and 87.3% in the assay on Platelet [11].
For the compound `COc1cc2c(cc1O)C(Cc1ccc(O)cc1)N(C)CC2` (racemic) [METHYL COCLAURINE], the Activity in the assay with Platelet [8] turned out to be 75.7%; in the assay on Platelet [9], 73.6%; in the assay with Platelet [10], 24.8%; in the assay on Aorta [15], 70.8%; with Aorta [16] it was 149.6%; in the assay with Platelet [11] it was 13.8%. The same compound showed an Activity in the assay with Aorta [17] of 106.6%.
In the assay on Aorta [18], `COC(=O)C1=C(C)NC(C)=C(C(=O)OC)C1c1ccccc1[N+](=O)[O-]` [NIFEDIPINE] registered an Activity of 0%.
As to `COc1cc2nc(N3CCN(C(=O)c4ccco4)CC3)nc(N)c2cc1OC` [PRAZOSIN], the Activity stood at 100% with Aorta [19] and 0% in the assay on Aorta [20].
In the case of `COc1cc2c(cc1OC)C(Cc1ccc(O)cc1)NCC2` (racemic), the Activity in the assay with Aorta [12] was 95.7%; in the assay with Platelet [8], 86.4%; with Platelet [9] it was 30.4%; with Platelet [10], 24.7%; in the assay on Aorta [13] it was 107.8%; in the assay with Platelet [11], 49.7%. The compound also registered an Activity in the assay on Aorta [14] of 103%.
In the case of `COc1cc(CC[N+](C)(C)[O-])c2ccc3ccccc3c2c1OC`, the Activity was found to be 27.5% in the assay on Aorta [12]; 61.1% in the assay on Platelet [8]; 37.4% in the assay on Platelet [9]; 0% in the assay with Platelet [10]; 5.8% with Aorta [13]; 0% in the assay with Platelet [11]. For the same compound, the Activity with Aorta [14] is 30%.
On to `COc1cc2ccc3c(CCN(C)C)cc4c(c3c2cc1OC)OCO4`, for which the Activity was 0% in the assay on Aorta [12]; 80.5% with Platelet [8]; 34.9% with Platelet [9]; 6.1% with Platelet [10]; 44.6% in the assay on Aorta [13]; 46.9% with Platelet [11]. Also, the Activity with Aorta [14] was 7.1%.
In the case of `CC(=O)Oc1ccccc1C(=O)O` [ASPIRIN], the Activity in the assay with Platelet [21] is 87.8%; in the assay on Platelet [22], 77.9%; in the assay on Platelet [23] it was 0%; in the assay with Platelet [24], 90.4%.
For `COc1cc2c(cc1O)[C@@H](Cc1ccc(O)cc1)[N+](C)(C)CC2.[I-]` [MAGNOCURARINE IODIDE], the Activity is on record as 123.5% in the assay on Aorta [12]; 23.2% with Platelet [8]; 69% in the assay with Platelet [9]; 87.7% with Platelet [10]; 134.7% in the assay on Aorta [13]; 87.4% in the assay with Platelet [11]. For the same compound, in the assay on Aorta [14], the Activity is given as 122.5%.
On to `COc1cc2c(cc1OC)[C@H](Cc1ccc(O)cc1)NCC2` [NORARMEPAVINE], for which the Activity came to 105.7% in the assay with Aorta [12]; 57.8% with Platelet [8]; 69.7% in the assay on Platelet [9]; 83.4% with Platelet [10]; 71.2% in the assay on Aorta [13]; 75.5% in the assay on Platelet [11]. In addition, the Activity in the assay on Aorta [14] is 121.9%.
For `COc1cc2c(cc1OC)[C@H](Cc1ccc(O)cc1)[N+](C)(C)CC2.[I-]`, the Activity is 88.4% in the assay with Platelet [8], 93.7% in the assay with Platelet [9], 39.6% in the assay on Platelet [10] and 66.8% in the assay on Platelet [11].

These data come from ChEMBL document CHEMBL1158268, “Antiplatelet of vasorelaxing actions of some benzylisoquinoline and phenanthrene alkaloids” (1996).
